Some results are limits rather than exact numbers.

Here are results for two compounds from ChEMBL document CHEMBL5346972, “Discovery of HDAC6, HDAC8, and 6/8 Inhibitors and Development of Cell-Based Drug Screening Models for the Treatment of TGF-β-Induced Idiopathic Pulmonary Fibrosis” (J Med Chem, 2023).

One series concerns the target Histone deacetylase 1 (Homo sapiens, UniProt Q13547). Description: Inhibition of human HDAC1 expressed in baculovirus expression system in Sf9 cells using RHKKAc (379 to 382 residues) fluorogenic peptide as substrate and measured after 2 hrs by fluorescence based analysis.
Series [1] deals with T1, Protein deacetylase HDAC6 (Homo sapiens, UniProt Q9UBN7).
T1 sequence (Q9UBN7 whole entry): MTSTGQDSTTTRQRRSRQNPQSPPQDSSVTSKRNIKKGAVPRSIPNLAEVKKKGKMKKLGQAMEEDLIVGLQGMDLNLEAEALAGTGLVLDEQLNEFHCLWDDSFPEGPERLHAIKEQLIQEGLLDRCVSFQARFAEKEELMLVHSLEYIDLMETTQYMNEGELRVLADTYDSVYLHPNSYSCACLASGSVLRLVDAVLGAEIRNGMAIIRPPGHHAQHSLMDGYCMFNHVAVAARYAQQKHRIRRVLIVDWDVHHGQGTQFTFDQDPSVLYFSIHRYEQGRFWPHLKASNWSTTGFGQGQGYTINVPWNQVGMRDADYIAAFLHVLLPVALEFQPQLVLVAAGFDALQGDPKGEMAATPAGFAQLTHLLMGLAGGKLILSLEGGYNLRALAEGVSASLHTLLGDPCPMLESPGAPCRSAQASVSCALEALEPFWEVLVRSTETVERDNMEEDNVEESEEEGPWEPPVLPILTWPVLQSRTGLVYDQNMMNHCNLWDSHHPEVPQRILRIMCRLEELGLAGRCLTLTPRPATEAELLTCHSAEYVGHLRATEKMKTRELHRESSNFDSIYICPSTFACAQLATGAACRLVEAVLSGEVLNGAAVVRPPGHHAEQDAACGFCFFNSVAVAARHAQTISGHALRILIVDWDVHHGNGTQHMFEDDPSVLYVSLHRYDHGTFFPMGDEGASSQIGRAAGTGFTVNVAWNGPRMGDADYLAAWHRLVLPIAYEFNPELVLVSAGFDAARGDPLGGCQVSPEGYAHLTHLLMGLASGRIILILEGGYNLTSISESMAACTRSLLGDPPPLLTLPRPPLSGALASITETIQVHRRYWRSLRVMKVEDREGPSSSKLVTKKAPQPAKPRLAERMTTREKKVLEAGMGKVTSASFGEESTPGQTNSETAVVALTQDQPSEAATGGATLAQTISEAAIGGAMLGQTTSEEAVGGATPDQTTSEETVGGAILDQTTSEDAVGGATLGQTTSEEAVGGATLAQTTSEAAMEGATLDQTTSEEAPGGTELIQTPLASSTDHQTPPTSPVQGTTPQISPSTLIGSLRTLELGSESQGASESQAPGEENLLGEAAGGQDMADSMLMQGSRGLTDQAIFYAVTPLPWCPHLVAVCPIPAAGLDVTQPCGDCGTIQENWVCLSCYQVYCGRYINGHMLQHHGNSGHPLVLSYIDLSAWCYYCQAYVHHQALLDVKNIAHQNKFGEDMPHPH
Briefly: Inhibition of human HDAC6 expressed in baculovirus expression system in Sf9 cells using RHKKAc (379 to 382 residues) fluorogenic peptide as substrate and measured after 2 hrs by fluorescence based analysis.

For the next series, the target named is T2, Histone deacetylase 8 (Homo sapiens, UniProt Q9BY41).
T2 sequence (Q9BY41 whole entry): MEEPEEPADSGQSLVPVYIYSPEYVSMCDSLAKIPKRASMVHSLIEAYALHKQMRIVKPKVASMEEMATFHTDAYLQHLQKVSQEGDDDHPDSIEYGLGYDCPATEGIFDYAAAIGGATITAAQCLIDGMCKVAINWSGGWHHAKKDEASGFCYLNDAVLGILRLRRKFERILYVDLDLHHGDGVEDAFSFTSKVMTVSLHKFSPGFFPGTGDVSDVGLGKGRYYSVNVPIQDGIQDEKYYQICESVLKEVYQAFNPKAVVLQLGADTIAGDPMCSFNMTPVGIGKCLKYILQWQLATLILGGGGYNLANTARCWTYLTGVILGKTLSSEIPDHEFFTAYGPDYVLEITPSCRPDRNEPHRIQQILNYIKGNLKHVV
Briefly: Inhibition of human HDAC8 expressed in baculovirus expression system in Sf9 cells using RHKAcKAc (379 to 382 residues) fluorogenic peptide as substrate and measured after 2 hrs by fluorescence based analysis.

In series [2] the test system is NIH3T3. Description: Antiproliferative activity against mouse NIH3T3 cells assessed as reduction in cell viability incubated for 3 days by CCK-8 assay. Format: functional, cell-based. The following applies: NIH3T3, 72 h. In general terms: Formazan colour is commonly taken as a measure of viable cells.
Series [3] has as its system NIH3T3. Briefly: Antiproliferative activity against mouse NIH3T3 cells assessed as reduction in cell viability by measuring optimal working concentration incubated for 3 days by CCK-8 assay relative to control. Format: functional. The settings on record: time 3 day.
Series [4] in a line: Antiproliferative activity against human Pulmonary fibroblast cells assessed as reduction in cell viability incubated for 3 days by CCK-8 assay. In kind it is functional, cell-based. The settings on record: 72 h.
A short description of series [5]: Antiproliferative activity against human Pulmonary fibroblast cells assessed as reduction in cell viability by measuring optimal working concentration incubated for 3 days by CCK-8 assay. In kind it is functional. The settings on record: time 3 day.
Series [6] can be described thus: Metabolic stability in human liver microsomes assessed as parent compound remaining at 200 uM preincubated for 5 mins followed by NADPH and measured at 60 mins by LC-MS/MS analysis.
The target of another series is Histone deacetylase 2 (Homo sapiens, UniProt Q92769). Description: Inhibition of human HDAC2 expressed in baculovirus expression system in Sf9 cells using RHKKAc (379 to 382 residues) fluorogenic peptide as substrate and measured after 2 hrs by fluorescence based analysis.
Another series addresses Histone deacetylase 3 (Homo sapiens, UniProt O15379). Briefly: Inhibition of human HDAC3 expressed in baculovirus expression system in Sf9 cells using RHKKAc (379 to 382 residues) fluorogenic peptide as substrate and measured after 2 hrs by fluorescence based analysis.
The target in the next series is Histone deacetylase 4 (Homo sapiens, UniProt P56524). Briefly: Inhibition of human HDAC4 expressed in baculovirus expression system in Sf9 cells using Boc-Lys(trifluoroacetyl)-AMC fluorogenic peptide as substrate and measured after 2 hrs by fluorescence based analysis.
The target of the next series is Histone deacetylase 5 (Homo sapiens, UniProt Q9UQL6). Description: Inhibition of human HDAC5 expressed in baculovirus expression system in Sf9 cells using Boc-Lys(trifluoroacetyl)-AMC fluorogenic peptide as substrate and measured after 2 hrs by fluorescence based analysis.
In another series the target is Histone deacetylase 9 (Homo sapiens, UniProt Q9UKV0). Briefly: Inhibition of human HDAC9 expressed in baculovirus expression system in Sf9 cells using Boc-Lys(trifluoroacetyl)-AMC fluorogenic peptide as substrate and measured after 2 hrs by fluorescence based analysis.
The next series deals with T3, Histone deacetylase 11 (Homo sapiens, UniProt Q96DB2).
T3 sequence (Q96DB2 whole entry): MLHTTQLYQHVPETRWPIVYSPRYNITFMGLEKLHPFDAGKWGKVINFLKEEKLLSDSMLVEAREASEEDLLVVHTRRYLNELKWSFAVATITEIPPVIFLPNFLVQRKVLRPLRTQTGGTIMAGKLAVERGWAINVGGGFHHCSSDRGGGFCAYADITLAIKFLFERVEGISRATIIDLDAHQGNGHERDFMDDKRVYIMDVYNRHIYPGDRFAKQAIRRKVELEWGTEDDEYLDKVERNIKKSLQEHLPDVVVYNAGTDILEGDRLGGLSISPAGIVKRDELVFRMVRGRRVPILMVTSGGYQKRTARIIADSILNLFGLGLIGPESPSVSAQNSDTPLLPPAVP
Description: Inhibition of human HDAC11 expressed in baculovirus expression system in Sf9 cells using Boc-Lys(trifluoroacetyl)-AMC fluorogenic peptide as substrate and measured after 2 hrs by fluorescence based analysis.

The nature of series [7]: in vitro. The settings on record: human, Caco-2.
Description: Apparent permeability across apical to basolateral side in human Caco-2 cells at 10 uM preincubated for 10mins followed by compound addition and measured after 90 mins by LC-MS/MS analysis
A short description of series [8]: in vitro. The settings on record: human.
The nature of series [9]: in vitro. The settings on record: human. The source holds these as a separate data set.

Sequence of Histone deacetylase 3 (O15379 whole entry, the tested form may be a part): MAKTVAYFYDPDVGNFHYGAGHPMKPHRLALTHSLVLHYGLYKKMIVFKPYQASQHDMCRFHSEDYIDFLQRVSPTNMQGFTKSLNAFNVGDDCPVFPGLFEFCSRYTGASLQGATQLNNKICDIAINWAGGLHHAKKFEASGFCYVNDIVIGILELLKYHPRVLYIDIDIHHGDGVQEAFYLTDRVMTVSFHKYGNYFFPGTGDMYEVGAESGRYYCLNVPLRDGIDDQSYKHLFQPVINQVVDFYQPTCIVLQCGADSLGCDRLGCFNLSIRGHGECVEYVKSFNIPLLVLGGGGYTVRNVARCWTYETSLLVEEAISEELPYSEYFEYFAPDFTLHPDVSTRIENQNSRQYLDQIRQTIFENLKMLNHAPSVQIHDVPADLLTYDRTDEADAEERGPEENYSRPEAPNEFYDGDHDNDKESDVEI
Sequence of Histone deacetylase 4 (P56524 whole entry): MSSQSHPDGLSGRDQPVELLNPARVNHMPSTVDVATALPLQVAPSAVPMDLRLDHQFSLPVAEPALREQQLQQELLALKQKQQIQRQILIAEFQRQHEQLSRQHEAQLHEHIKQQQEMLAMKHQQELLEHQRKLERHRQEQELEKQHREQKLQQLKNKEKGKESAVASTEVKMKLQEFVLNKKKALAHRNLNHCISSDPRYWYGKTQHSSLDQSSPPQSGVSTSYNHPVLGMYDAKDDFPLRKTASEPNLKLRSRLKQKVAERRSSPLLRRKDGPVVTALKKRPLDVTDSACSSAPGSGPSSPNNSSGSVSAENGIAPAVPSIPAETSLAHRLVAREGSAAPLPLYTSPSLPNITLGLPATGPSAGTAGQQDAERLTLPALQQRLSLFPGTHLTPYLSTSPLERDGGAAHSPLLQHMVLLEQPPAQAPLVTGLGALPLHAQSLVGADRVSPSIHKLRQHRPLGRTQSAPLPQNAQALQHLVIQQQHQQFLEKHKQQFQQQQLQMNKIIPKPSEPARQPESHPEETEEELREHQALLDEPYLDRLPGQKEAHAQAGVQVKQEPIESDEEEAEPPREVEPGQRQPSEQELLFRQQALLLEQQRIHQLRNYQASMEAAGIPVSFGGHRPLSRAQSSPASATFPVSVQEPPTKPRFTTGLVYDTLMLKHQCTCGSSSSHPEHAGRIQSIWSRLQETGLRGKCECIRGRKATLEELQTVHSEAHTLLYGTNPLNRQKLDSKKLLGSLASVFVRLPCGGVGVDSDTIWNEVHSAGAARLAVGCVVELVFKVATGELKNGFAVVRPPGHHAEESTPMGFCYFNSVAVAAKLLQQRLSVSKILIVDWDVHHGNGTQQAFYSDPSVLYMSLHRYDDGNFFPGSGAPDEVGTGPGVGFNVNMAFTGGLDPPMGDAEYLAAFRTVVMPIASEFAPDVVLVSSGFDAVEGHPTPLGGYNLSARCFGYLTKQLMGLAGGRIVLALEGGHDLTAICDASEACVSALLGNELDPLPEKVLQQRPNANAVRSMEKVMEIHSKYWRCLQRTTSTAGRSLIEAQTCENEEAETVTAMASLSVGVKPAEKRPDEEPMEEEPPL
Sequence of Histone deacetylase 9 (Q9UKV0 whole entry): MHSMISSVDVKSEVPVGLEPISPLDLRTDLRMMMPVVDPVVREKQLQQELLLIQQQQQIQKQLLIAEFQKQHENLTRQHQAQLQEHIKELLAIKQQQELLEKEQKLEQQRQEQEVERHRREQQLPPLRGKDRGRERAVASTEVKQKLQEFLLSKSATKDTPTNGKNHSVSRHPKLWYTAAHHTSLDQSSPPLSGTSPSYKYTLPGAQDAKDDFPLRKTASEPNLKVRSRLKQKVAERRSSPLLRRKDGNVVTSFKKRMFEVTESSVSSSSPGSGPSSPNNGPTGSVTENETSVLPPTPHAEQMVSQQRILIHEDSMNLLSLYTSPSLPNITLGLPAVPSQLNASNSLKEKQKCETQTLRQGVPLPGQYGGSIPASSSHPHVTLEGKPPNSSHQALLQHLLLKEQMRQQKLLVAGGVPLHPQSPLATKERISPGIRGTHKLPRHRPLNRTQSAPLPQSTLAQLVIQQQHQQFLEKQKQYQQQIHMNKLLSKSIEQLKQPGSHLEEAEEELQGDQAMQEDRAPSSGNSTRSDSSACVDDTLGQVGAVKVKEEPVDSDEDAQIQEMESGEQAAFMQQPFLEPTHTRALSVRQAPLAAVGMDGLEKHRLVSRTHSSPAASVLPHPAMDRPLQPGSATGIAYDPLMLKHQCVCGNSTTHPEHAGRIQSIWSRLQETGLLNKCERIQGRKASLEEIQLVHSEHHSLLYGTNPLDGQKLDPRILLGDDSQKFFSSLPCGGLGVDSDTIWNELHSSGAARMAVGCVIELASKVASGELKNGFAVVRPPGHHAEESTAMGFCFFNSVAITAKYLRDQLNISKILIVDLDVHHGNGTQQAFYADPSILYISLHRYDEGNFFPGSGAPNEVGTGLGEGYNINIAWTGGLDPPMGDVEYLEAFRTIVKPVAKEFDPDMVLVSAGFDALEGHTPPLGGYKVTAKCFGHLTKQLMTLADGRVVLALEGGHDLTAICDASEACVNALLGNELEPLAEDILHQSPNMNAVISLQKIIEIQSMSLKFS
Sequence of Histone deacetylase 2 (Q92769 whole entry, the tested form may be a part): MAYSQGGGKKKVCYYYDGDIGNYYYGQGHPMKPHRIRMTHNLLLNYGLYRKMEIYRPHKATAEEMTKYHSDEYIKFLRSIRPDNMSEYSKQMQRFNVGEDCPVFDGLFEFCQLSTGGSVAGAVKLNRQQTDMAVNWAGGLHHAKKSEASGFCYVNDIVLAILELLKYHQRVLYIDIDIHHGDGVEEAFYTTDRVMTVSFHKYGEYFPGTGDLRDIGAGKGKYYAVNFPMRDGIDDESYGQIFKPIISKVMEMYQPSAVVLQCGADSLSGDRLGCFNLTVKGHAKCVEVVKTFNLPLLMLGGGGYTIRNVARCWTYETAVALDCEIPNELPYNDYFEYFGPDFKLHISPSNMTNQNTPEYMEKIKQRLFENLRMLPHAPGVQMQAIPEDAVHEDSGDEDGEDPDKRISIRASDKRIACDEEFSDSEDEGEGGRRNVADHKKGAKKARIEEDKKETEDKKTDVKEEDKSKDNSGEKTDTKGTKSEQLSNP
Sequence of Histone deacetylase 5 (Q9UQL6 whole entry): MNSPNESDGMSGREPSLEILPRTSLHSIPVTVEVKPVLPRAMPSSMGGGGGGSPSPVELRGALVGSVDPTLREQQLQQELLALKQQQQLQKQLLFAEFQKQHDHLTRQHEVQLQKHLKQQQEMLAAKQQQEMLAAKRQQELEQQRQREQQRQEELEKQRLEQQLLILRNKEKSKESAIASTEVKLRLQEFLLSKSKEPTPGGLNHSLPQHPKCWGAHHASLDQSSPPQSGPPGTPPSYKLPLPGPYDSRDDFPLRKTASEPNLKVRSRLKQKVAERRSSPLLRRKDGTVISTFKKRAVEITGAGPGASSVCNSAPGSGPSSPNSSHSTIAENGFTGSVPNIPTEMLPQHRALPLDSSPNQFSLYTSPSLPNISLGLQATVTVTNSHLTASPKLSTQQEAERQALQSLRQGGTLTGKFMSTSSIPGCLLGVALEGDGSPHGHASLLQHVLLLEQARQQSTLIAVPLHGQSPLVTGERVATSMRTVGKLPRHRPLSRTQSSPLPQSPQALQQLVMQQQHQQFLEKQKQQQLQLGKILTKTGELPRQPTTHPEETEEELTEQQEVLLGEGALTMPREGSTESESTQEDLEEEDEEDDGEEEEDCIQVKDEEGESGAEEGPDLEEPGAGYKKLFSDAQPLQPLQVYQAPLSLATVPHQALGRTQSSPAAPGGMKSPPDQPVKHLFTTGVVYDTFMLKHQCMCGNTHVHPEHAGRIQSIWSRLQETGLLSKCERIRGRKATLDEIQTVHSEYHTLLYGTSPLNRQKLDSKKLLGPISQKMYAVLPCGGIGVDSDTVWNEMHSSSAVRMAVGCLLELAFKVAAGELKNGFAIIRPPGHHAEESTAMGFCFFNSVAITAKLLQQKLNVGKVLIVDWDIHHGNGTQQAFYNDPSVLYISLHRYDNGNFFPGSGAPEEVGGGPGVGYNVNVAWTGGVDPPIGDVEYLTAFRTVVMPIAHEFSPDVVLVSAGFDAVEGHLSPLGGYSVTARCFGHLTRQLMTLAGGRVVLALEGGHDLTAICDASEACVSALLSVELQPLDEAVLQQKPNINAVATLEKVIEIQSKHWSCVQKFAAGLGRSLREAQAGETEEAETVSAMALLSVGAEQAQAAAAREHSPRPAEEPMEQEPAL
Sequence of Histone deacetylase 1 (Q13547 whole entry, the tested form may be a part): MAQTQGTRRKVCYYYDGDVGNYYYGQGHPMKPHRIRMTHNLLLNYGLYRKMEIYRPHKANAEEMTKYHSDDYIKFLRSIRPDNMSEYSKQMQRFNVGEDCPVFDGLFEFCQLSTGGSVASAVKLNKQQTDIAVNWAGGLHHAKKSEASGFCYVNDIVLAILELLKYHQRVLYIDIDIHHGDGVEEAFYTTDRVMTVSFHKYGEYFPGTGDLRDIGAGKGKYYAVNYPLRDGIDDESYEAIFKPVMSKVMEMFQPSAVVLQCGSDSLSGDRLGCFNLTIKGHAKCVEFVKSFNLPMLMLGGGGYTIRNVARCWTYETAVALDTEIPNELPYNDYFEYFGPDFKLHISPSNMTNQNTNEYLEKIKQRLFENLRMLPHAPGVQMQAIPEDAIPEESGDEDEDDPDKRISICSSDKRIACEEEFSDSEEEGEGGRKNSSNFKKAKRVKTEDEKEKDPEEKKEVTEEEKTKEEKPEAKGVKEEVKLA

For the compound `O=C(NO)c1ccc(Cn2c(=O)[nH]c(=O)c3cccc(Cl)c32)cc1`, the IC50 (usually the midpoint of a concentration-inhibition curve) against Histone deacetylase 1 stood at 190 nM; in [1], 10 nM; against Histone deacetylase 8, 137 nM; with NIH3T3 [2], 18600 nM; in series [4], 8820 nM; against Histone deacetylase 2, 378 nM. Further, the IC50 on Histone deacetylase 3 came to 302 nM; at Histone deacetylase 4, 516 nM; against Histone deacetylase 5 it was 211 nM; at Histone deacetylase 9, 431 nM; against Histone deacetylase 11, 812 nM. Also, the MEC is 9.7 µM in the series with NIH3T3 [3] and 10 µM in [5]. Also, the amount remaining (in general, what is left of the initial amount, in per cent) at 1 h, 200 µM in [6] (liver microsomes) came out at 100%. In addition, the apical-to-basolateral permeability (Papp A→B) (in general, the apparent permeability from the apical to the basolateral side of a cell layer) at 1.5 h, 10 µM in “in vitro [7]” stood at 1.4 ×10⁻⁶ cm/s. In addition, the half-life (commonly the time needed for the level to fall by half in the phase considered) at 1 h, 200 µM in “in vitro [8]” (liver microsomes) is > 3.11 h. In the series “in vitro [9]” (liver microsomes), the intrinsic clearance (CLint scaled) – broadly, the capacity of the preparation to metabolise the compound, expressed as a volume cleared per time – at 1 h, 200 µM was < 6.1 mL/min/kg.

`Cc1nc2cc(/C=C/C(=O)NO)ccc2c(=O)n1-c1ccccc1`: the IC50 in [1] was 62 nM; at Histone deacetylase 8, 1550 nM; with NIH3T3 [2] it was > 40000 nM; in series [4], > 40000 nM; against Histone deacetylase 2, 7380 nM; against Histone deacetylase 3 it was 1590 nM. For the same compound, the IC50 against Histone deacetylase 4 is 30000 nM; against Histone deacetylase 5 it was 8410 nM; on Histone deacetylase 9, 30000 nM; against Histone deacetylase 11 it was 4700 nM. Further, the MEC in the series on NIH3T3 [3] worked out at 20 µM; in series [5], 10 µM. For the same compound, in [6] (microsomes), the fraction remaining at 1 h, 200 µM was 89.6%. In addition, in “in vitro [8]” (microsomes), the half-life at 1 h, 200 µM was > 3.11 h. Further, in “in vitro [9]” (microsomes), the CLint scaled at 1 h, 200 µM was < 6.1 mL/min/kg.
